Source: patent US20250002435A1, “ARYLATED FENCHONE DERIVATIVES, COMPOSITIONS COMPRISING THEM, PROCESSES FOR THEIR PREPARATION AND USES THEREOF” (priority 2021, published 2025)
Where “and” joins values, the source holds several entries; their conditions need not be identical. Equal values may be shown once.

Experiments:
hCB2R [1] = molecular target: T1, hCB2R (Homo sapiens (Human), UniProt P34972); experiment: [35S]GTPγS binding assay, hCB2R CHO cell membranes; type: biochemical; conditions: for functional activity at hCB2R (agonist / inverse agonist): [35S]GTPγS binding; for EC50: [35S]GTPγS binding to hCB2R, two independent experiments in triplicate; for E(max) %: percentage of HU-308 response at 1 μM
Description: Functional Characterization.
The method used for measuring agonist-stimulated binding of [^35S]GTPγS was based on a described protocol. The assays were carried out with GTPγS assay buffer (50 mM Tris HCl (pH 7.4), 0.2 mM EGTA, 9 mM MgCl2, 150 mM NaCl, 1 mg/ml BSA). Briefly, membranes (5 μg protein) were incubated in assay buffer containing 100 μM GDP, 0.05 nM [^35S]GTPγS, test compounds at various concentrations in siliconized glass tubes. Bound ligand was separated from free ligand by vacuum filtration. Nonspecific binding was determined using 10 μM GTPS. Basal binding was assayed in the absence of the ligand and in the presence of GDP.

CNR1 = CNR1 (Homo sapiens (Human), UniProt P21554); experiment: cAMP Hunter agonist assay, CHO-K1 cells expressing CB1; type: cell-based
Description: Cannabinoid receptors belong to G-protein-coupled receptors which may transduce intracellular agonist-antagonist responses regulating in part levels of cAMP within the cells. Fenchone derivates were assayed using Eurofins proprietary assays (i.e. CB1-Antagonist Catalog #86-0007P-2277AN; CB2-Antagonist Catalog ref. 86-0007P-2818AN; CB1-Agonist; Catalog #86-0007P-2277AG; CB2-Agonist-Catalog #86-0007P-2818AG).
Similarly, for agonist activity, cAMP Hunter™ Gs cell lines overexpress naturally Gs coupled, wild type GPCRs and are designed to detect increases in intracellular cAMP levels in response to agonist stimulation of the receptor. These cell lines are designed to be used in conjunction with the HitHunter® cAMP Assay Detection Kit. For both assays, human CB1 or CB2 receptors were stably transfected CHO-K1 cells and subjected to positive controls, known to activate the increase of cAMP for both receptors (Agonist control 20 μM Forskolin for CB1 and 25 μM Forskolin for CB2) or inhibit cAMP intracellular levels of CB1 ([…] CP55940) or CB2 ([…] CP55940). Cells were seeded in a total volume of 20 μL into white walled, 384-well microplates and incubated at 37° C. overnight. Prior to testing cell plating media was exchanged with 10 uL of Assay buffer (HBSS+10 mM HEPES). […]

hCB2R [2] = molecular target: T1, hCB2R; experiment: [3H]CP-55,940 competition displacement binding, membranes of CHO-K1 cells expressing human CB2R; conditions: for Ki: displacement of [3H]CP-55,940; for mCB1R/hCB2R: selectivity index from Ki values
Description: Affinity for Cannabinoid Receptors. The compounds were further characterized using a radioligand binding assay to determine their affinities for CB1R and CB2R based on each test compound's ability to displace the radiolabeled CB1R/CB2R agonist CP-55,940 from membranes prepared from a mouse brain (a source of CB1R) and membranes of cells expressing the human CB2R. […] Therefore, the compounds were assayed using membranes from CHO-K1 cells expressing the human CB2R (hCB2R).
Membranes from cells expressing human CB2R were purchased from Charles River, (Cat #A308; Ohio, US). Solutions of test compounds ranging from 0.1 nM to 10 mM were prepared in DMSO. The desired amount of membrane preparation was diluted with ice-cold assay buffer (50 mM Tris-HCl, 2.5 mM EDTA, 5 mM MgCl2, 0.1% BSA, pH 7.4) and was vortexed. […] The assays were incubated for 90 minutes at 30° C. and then immediately filtered on WHATMAN GF/B FilterPaper (Fired) using a Brandel M-24R Harvester followed by six washes with ice cold wash buffer (50 mM Tris-HCl, 2.5 mM EDTA, 5 mM MgCl2, 0.1% BSA, pH 7.4). Radioactivity was detected by adding the FilterPaper directly to the ULTIMA GOLD scintillation cocktail (PerkinElmer), incubation at 20° C. for 60 min and then counted using a Tri-Carb 4910TR liquid scintillation counter.

[3] = test system: zymosan-induced paw swelling; experiment: zymosan mouse paw inflammatory pain model, paw swelling, with or without CB2 antagonists; type: in vivo; conditions: for paw swelling vs control: 6 h; for paw swelling effects: SR144528 experiment, 24 h after induction
Description: (§1) To induce inflammation, 40 μL of 1.5% (w/v) zymosan A (Sigma) suspended in 0.9% saline was injected into the sub-planter surface of the right hind paw of the mice. Immediately after zymosan injection, antagonists were injected intraperitoneally (IP) and after 30 minutes, the fenchone derivatives dissolved in 0.1 mL vehicle containing ethanol:Cremophore:saline at a ratio of 1:1:18 were injected. Control mice were injected with the vehicle only. After 2, 6, and 24 hrs, paw swelling, and pain perception were measured.
(§2) Specifically, measurement of Oedema Formation was assessed by monitoring paw swelling via calibrated calipers (0.01 mm), 6 and 24 hrs following injections of zymosan alone and/or the test compounds. Pain hyperalgesia was evaluated by the paw withdrawal von Frey test at 6, and 24 h following injections of zymosan and/or the test compounds. […] In this study, only 1.4-60 g corresponding to 4.17 to 5.88 log of force was used, to test the mouse sensitivity to a mechanical stimulus on the swollen paw. The measurements were performed in a quiet room. Before paw pain measurements, the animals were held for 10 sec. The trained investigator applied the filament to the central area of the hind paw with gradual increasing size. The test consisted of poking the middle of the hind paw to provoke a flexion reflex followed by a clear flinch response after paw withdrawal. Each one of the von Frey filaments was applied for approximately 3-4 s to induce the end-point reflex. The first testing was done by using the force filament of 1.4 g. If there was no withdrawal response, the next higher stimulus was tried. The mechanical threshold force (in grams (g)) was defined as the lowest force imposed by two von Frey monofilaments of various sizes, required to produce a paw retraction. The untreated left hind paw served as a control.

[4] = test system: zymosan-induced hyperalgesia; experiment: zymosan mouse paw inflammatory pain model, von Frey test, with or without CB2 antagonists; type: in vivo; conditions: for von Frey pain effect: SR144528 experiment, 25 mg/kg IP
Description: as §1, §2

[5] = 25 mg/kg IP together with CB2 antagonist SR144528 1 mg/kg

T1 sequence (P34972 whole entry): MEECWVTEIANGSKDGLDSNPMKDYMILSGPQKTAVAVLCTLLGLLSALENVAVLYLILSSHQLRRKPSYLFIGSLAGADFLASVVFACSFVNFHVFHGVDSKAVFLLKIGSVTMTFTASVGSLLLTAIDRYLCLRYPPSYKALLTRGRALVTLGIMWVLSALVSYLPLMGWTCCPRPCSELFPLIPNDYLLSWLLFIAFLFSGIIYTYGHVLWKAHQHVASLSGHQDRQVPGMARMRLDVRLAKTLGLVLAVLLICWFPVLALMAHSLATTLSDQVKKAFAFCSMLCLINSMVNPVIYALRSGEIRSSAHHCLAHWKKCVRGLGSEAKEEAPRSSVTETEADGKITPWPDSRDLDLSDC

Structure (SMILES) | functional activity at hCB2R (agonist / inverse agonist) (hCB2R [1]) | EC50 (hCB2R [1]) | E(max) % (hCB2R [1]) [%] | agonist response CNR1 (CNR1) | Ki (hCB2R [2]) [nM] | selectivity for the hCB2R over the mCB1R (hCB2R [2]; from Ki values) [fold] | mCB1R/hCB2R (hCB2R [2]) | paw swelling ([3]; 25 mg/kg IP 1D and 10 mg/kg AM630, 6 h) | paw swelling ([3]; 25 mg/kg IP alone, 24 h, AM630 experiment) | paw swelling vs control [3, 5] | paw swelling vs control ([3]; 25 mg/kg IP, alone) | paw swelling effects [3] | von Frey pain phenotype ([4]; 25 mg/kg IP alone, AM630 experiment) | von Frey pain effect [4]
CCCCCCC(C)(C)c1cc(OC)c([C@]2(O)C3(C)CCC(C3)C2(C)C)c(OC)c1 (stereo partly drawn) [Compound 1d, 2-(2,6′-dimethoxy-4′-(2″-methyloctan-2″-yl)phenyl)-1,3,3-trimethyl-bicyclo[2.2.1]heptan-2-ol] | agonist | 2.6 nM and 2.59 nM | 89.63 | no response | 3.51 | 121 | 121.8 | reduced swelling | reduced swelling with 1D alone was sustained | swelling was reduced compared to the control | reduced swelling response | not observed | significant affect | insignificant
CCCCCc1cc(OC)c(C2(O)C3(C)CCC(C3)C2(C)C)c(OC)c1 (single isomer, unassigned) [Compound 1b, 2-(2,6′-dimethoxy-4′-pentylphenyl)-1,3,3-trimethylbicyclo[2.2.1]heptan-2-ol] | agonist | 11.6 nM | 65.1 | no response | 14.4 |  | 158.3 |  |  | paw swelling was unaffected | reduced swelling response | not observed |  | insignificant
